# Assays:
# [1] = tested on: mixture of bacterial organisms listed in Table 1; assay: cutting oil preservation test
# Description: (§1) Fifty gram aliquots of the latex were placed in sterile bottles and one hundred gram aliquots of the diluted cutting oil were placed in 250-mL Erlenmeyer flasks. An appropriate amount of a fresh 1 percent stock solution of (2-nitrophenyl)-iodonium 2,2-dimethyl-4,6-dioxo-1,3-dioxan-5-ylide in acetone-water was added to achieve the desired final concentrations (see Tables 5 and 6). A small portion of the respective latex or cutting oil preparation was then streaked onto Tryptic Soy Agar (TSA) petri plates using sterile cotton swabs to determine whether the preparations were sterile. If the particular preparation was sterile, it was then inoculated with an appropriate volume (0.1 mL for the latex and 0.2 mL for the cutting oil) of a mixture of equal aliquots of 24 hr cultures of each of the bacterial organisms listed in Table 1 (not the fungi and yeast). The latex samples were incubated at 30° C. and the cutting oils were agitated on a rotary shaker at room temperature. After 24 hr, all samples were again streaked on TSA. All plates were then incubated at 30° C. for 48 hr and then rated 1 to 10 according to the growth rating system described in Table 4.
# (§2) The results from this first set of streaks after inoculation are listed in the columns labeled streak number 1 in Tables 5 and 6. Samples with a rating of 3 or less from streak number 1 were reinoculated as described for the first inoculation above. Samples with a rating of 4 or greater were not reinoculated. After another 24 hr all samples were again restreaked on TSA agar. The results from these second streaks were labeled streak number 2 in Tables 5 and 6. Samples were reinoculated and restreaked in this fashion for a maximum of 10 streaks. Any samples with two streaks in a row with a ten rating were not restreaked again.
# [2] = tested on: bacteria listed in Table I, Klebsiella oxytoca, Enterobacter gergoviae, Pseudomonas putida #1, and Pseudomonas putida #2; assay: hand lotion preservation test
# Description: as §1, §2
# The ingredients of the hand creme, hand lotion, and protein shampoo are listed in Tables 7, 8 and 9, respectively. In the cosmetic preservative procedures, the stock solution of (2-nitrophenyl)-iodonium 2,2-dimethyl-4,6-dioxo-1,3-dioxan-5-ylide) was made in dimethylformamide (DMF)/water solution. In addition to the bacteria listed in Table I, the following bacteria were also included in the inocula: Klebsiella oxytoca, Enterobacter gergoviae, Pseudomonas putida #1, and Pseudomonas putida #2.
# 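Also: colony count scale from 1 for no colonies up to 10 for a solid mass.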
smiles,measurement,setting,value
"CC1(C)OC(=O)[C-]([I+]c2ccccc2[N+](=O)[O-])C(=O)O1 [Example 19, (2-Nitrophenyl)-iodonium 2,2-dimethyl-4,6-dioxo-1,3-dioxan-5-ylide]",growth rating,"[1]; 25 ppm, streak 1",1 (0)
same,growth rating,"[1]; 25 ppm, streak 2",9
same,growth rating,"[1]; 25 ppm, streak 3",10
same,growth rating,"[1]; 25 ppm, streak 4, restreaking not continued",10
same,growth rating,"[1]; 50 ppm, streak 1",1 (0)
same,growth rating,"[1]; 50 ppm, streak 2",2 (1-4)
same,growth rating,"[1]; 50 ppm, streak 3",10
same,growth rating,"[1]; 50 ppm, streak 4, restreaking not continued",10
same,growth rating,"[1]; 100 ppm, streak 1",1 (0)
same,growth rating,"[1]; 100 ppm, streak 2",2 (1-4)
same,growth rating,"[1]; 100 ppm, streak 3",2 (1-4)
same,growth rating,"[1]; 100 ppm, streak 4",1 (0)
same,growth rating,"[1]; 100 ppm, streak 5",10
same,growth rating,"[1]; 100 ppm, streak 6, restreaking not continued",10
same,growth rating,"[1]; 250 ppm, streak 1",1 (0)
same,growth rating,"[1]; 250 ppm, streak 2",1 (0)
same,growth rating,"[1]; 250 ppm, streak 3",1 (0)
same,growth rating,"[1]; 250 ppm, streak 4",1 (0)
same,growth rating,"[1]; 250 ppm, streak 5",1 (0)
same,growth rating,"[1]; 250 ppm, streak 6",1 (0)
same,growth rating,"[1]; 250 ppm, streak 7",1 (0)
same,growth rating,"[1]; 250 ppm, streak 8",1 (0)
same,growth rating,"[1]; 250 ppm, streak 9",6 (51-100)
same,growth rating,"[1]; 250 ppm, streak 10",10
same,growth rating,"[1]; 500 ppm, streak 1",1 (0)
same,growth rating,"[1]; 500 ppm, streak 2",1 (0)
same,growth rating,"[1]; 500 ppm, streak 3",1 (0)
same,growth rating,"[1]; 500 ppm, streak 4",1 (0)
same,growth rating,"[1]; 500 ppm, streak 5",1 (0)
same,growth rating,"[1]; 500 ppm, streak 6",1 (0)
same,growth rating,"[1]; 500 ppm, streak 7",1 (0)
same,growth rating,"[1]; 500 ppm, streak 8",1 (0)
same,growth rating,"[1]; 500 ppm, streak 9",1 (0)
same,growth rating,"[1]; 500 ppm, streak 10",1 (0)
same,growth rating,"[1]; 1000 ppm, streak 1",1 (0)
same,growth rating,"[1]; 1000 ppm, streak 2",1 (0)
same,growth rating,"[1]; 1000 ppm, streak 3",1 (0)
same,growth rating,"[1]; 1000 ppm, streak 4",1 (0)
same,growth rating,"[1]; 1000 ppm, streak 5",1 (0)
same,growth rating,"[1]; 1000 ppm, streak 6",1 (0)
same,growth rating,"[1]; 1000 ppm, streak 7",1 (0)
same,growth rating,"[1]; 1000 ppm, streak 8",1 (0)
same,growth rating,"[1]; 1000 ppm, streak 9",1 (0)
same,growth rating,"[1]; 1000 ppm, streak 10",1 (0)
same,growth rating,"[2]; 10 ppm, streak 1",1 (0)
same,growth rating,"[2]; 10 ppm, streak 2",1 (0)
same,growth rating,"[2]; 10 ppm, streak 3",2 (1-4)
same,growth rating,"[2]; 10 ppm, streak 6",9
same,growth rating,"[2]; 10 ppm, streak 8",9
same,growth rating,"[2]; 10 ppm, streak 9",10
same,growth rating,"[2]; 10 ppm, streak 10",10
same,growth rating,"[2]; 25 ppm, streak 1",1 (0)
same,growth rating,"[2]; 25 ppm, streak 2",1 (0)
same,growth rating,"[2]; 25 ppm, streak 3",1 (0)
same,growth rating,"[2]; 25 ppm, streak 4",1 (0)
same,growth rating,"[2]; 25 ppm, streak 5",1 (0)
same,growth rating,"[2]; 25 ppm, streak 6",1 (0)
same,growth rating,"[2]; 25 ppm, streak 7",1 (0)
same,growth rating,"[2]; 25 ppm, streak 8",1 (0)
same,growth rating,"[2]; 25 ppm, streak 9",1 (0)
same,growth rating,"[2]; 25 ppm, streak 10",2 (1-4)
same,growth rating,"[2]; 50 ppm, streak 1",1 (0)
same,growth rating,"[2]; 50 ppm, streak 2",1 (0)
same,growth rating,"[2]; 50 ppm, streak 3",1 (0)
same,growth rating,"[2]; 50 ppm, streak 4",1 (0)
same,growth rating,"[2]; 50 ppm, streak 5",1 (0)
same,growth rating,"[2]; 50 ppm, streak 6",1 (0)
same,growth rating,"[2]; 50 ppm, streak 7",1 (0)
same,growth rating,"[2]; 50 ppm, streak 8",1 (0)
same,growth rating,"[2]; 50 ppm, streak 9",1 (0)
same,growth rating,"[2]; 50 ppm, streak 10",1 (0)
same,growth rating,"[2]; 100 ppm, streak 1",1 (0)
same,growth rating,"[2]; 100 ppm, streak 2",1 (0)
same,growth rating,"[2]; 100 ppm, streak 3",1 (0)
same,growth rating,"[2]; 100 ppm, streak 4",1 (0)
same,growth rating,"[2]; 100 ppm, streak 5",1 (0)
same,growth rating,"[2]; 100 ppm, streak 6",1 (0)
same,growth rating,"[2]; 100 ppm, streak 7",1 (0)
same,growth rating,"[2]; 100 ppm, streak 8",1 (0)
same,growth rating,"[2]; 100 ppm, streak 9",1 (0)
same,growth rating,"[2]; 100 ppm, streak 10",1 (0)
